The test system of assay [1] is IL-17A secretion in activated PBMCs. Nature of the assay: IL-17A secretion in activated PBMCs. In kind it is cell-based, human. To be noted: Homo sapiens, PBMC, 48 h, human PBMCs stimulated with CD3/CD28 Dynabeads for 48 h; absolute IC50. Here is the method: Heparin-treated whole blood from healthy human volunteers was supplied from Hospital de Sant Pau (Barcelona) under the approval of the local ethical review board for human studies (Hospital de Sant Pau, Barcelona, Spain). Human peripheral blood mononuclear cells (PBMCs) were isolated from healthy human volunteers by density gradient centrifugation using the Ficoll-Paque (GE Healthcare). […] Cells were seeded in 384-well plate (DiscoverX), at 40,000 cells per well and cultured 2 h at 37° C. and 5% CO2.
Dose-response curves with compounds were prepared using a 5-fold serial dilution (10 concentrations) in 100% DMSO and further diluted 100-fold in culture medium. Compound solutions (5 μL) were added to the plate containing cells (final DMSO concentration of 0.1%) and incubated for 30 min. Then, cells were stimulated with CD3/CD28 Dynabeads (ThermoFisher, at a bead-to-cell ratio of 1:1) for 48 h at 37° C. and 5% CO2.
IL-17A levels in supernatant were determined by immunoassay using hIL17A QBeads (Intellicyt) and by fluorescence analysis in iQue flow cytometer following the manufacturer's instructions. Inhibition of IL-17A secretion was calculated using the following formula: inhibition=100*[1−[(x−mean basal condition)/(mean top condition−mean basal condition)]]. Activated DMSO-treated cells were used as top condition and activated GNE09461 (10 μM)-treated cells as basal condition.

For assay [2], the target named is T1, RORγ ligand-binding domain fused to Gal4 (Homo sapiens, UniProt P51449).
T1 construct: Gal4 (galactose-responsive transcription factor); expressed in transfected cells; host or cells: HEK293
T1 sequence (P51449 269-508 limits assumed): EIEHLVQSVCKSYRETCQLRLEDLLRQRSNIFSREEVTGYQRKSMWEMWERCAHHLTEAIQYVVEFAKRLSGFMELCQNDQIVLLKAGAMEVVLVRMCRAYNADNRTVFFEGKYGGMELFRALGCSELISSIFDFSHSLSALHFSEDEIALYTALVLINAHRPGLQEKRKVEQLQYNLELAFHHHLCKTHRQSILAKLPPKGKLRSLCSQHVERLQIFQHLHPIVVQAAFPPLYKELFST
Nature of the assay: RORγ Reporter Assay (Gal4). In kind it is cell-based. The procedure, abridged:
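HEK293 cells transiently co-transfected with the Gal4-fused RORγ LBD and a UAS-luciferase reporter were exposed to compounds for 24 h at 37 °C (0.1% DMSO final). Luminescence was read, and percent reduction of RORγ activity was calculated relative to vehicle-average RLU.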
Background: Reporter assays use an easily measured gene product as a stand-in for the process of interest.

[3] abbreviates: HEK293 cells co-transfected with RORγ LBD-Gal4 and luciferase reporter, 24 h incubation, absolute EC50, read-out: EC50.
Where [4] appears, read: compounds of the present disclosure, value from Table 2 herein, read-out: Gal4 assay EC50.

SMILES strings stand for the structures. Where two headings read alike, the source gives them in different places.

The term IC50 denotes the point on the concentration scale where inhibition reaches its midpoint. The EC50 is the concentration needed to bring the measured effect to its halfway point.

With `CCN(Cc1ccc(C(F)(F)F)cc1F)c1ncnc(NC[C@H]2CCN(CC(N)=O)C[C@@H]2O)c1F` (stereo in doubt) [Example A7-26-2, rel-2-((3R,4R)-4-(((6-(ethyl(2-fluoro-4-(trifluoromethyl)benzyl)amino)-5-fluoropyrimidin-4-yl)amino)methyl)-3-hydroxypiperidin-1-yl)acetamide], inhibition in assay [1] was half-maximal at 29 nM (IC50). In assay [2] (setting [3]), the 50% effective concentration (EC50) worked out at 8.5 nM.
On the same counts, the results for `NC(=O)CN1CC[C@@H](CNc2ncnc(N(Cc3ccc(C(O)(C(F)(F)F)C(F)(F)F)cc3)C3CC3)c2F)[C@H](O)C1` (stereo in doubt) [Example A7-54, rac-2-((3R,4R)-4-(((6-(cyclopropyl(4-(1,1,1,3,3,3-hexafluoro-2-hydroxypropan-2-yl)benzyl)amino)-5-fluoropyrimidin-4-yl)amino)methyl)-3-hydroxypiperidin-1-yl)acetamide] are 5.6 nM and 0.6 nM.
On the same counts, the results for `NC(=O)CN1CC[C@H](CNc2ncnc(N(Cc3ccc(C(O)(C(F)(F)F)C(F)(F)F)cc3)C3CC3)c2F)[C@@H](O)C1` (stereo in doubt) [Example A7-54-2, rel-2-((3R,4R)-4-(((6-(cyclopropyl(4-(1,1,1,3,3,3-hexafluoro-2-hydroxypropan-2-yl)benzyl)amino)-5-fluoropyrimidin-4-yl)amino)methyl)-3-hydroxypiperidin-1-yl)acetamide] are 6.2 nM and 2.5 nM.
In assay [1], `Cc1cc(C(F)(F)F)ccc1CN(c1ncnc(NCC2CCN(CC(N)=O)CC2)c1F)C1CC1` [Example A7-02, 2-(4-(((6-(cyclopropyl(2-methyl-4-(trifluoromethyl)benzyl)amino)-5-fluoropyrimidin-4-yl)amino)methyl)piperidin-1-yl)acetamide] returned an IC50 of 58 nM. In addition, the EC50 in assay [2] (setting [3]) turned out to be 76 nM.
In assay [1], `NC(=O)CN1CCC(O)(CNc2ncnc(N(Cc3ccc(C(F)(F)F)cn3)C3CC3)c2F)CC1` [Example A7-09, 2-(4-(((6-(cyclopropyl((5-(trifluoromethyl)pyridin-2-yl)methyl)amino)-5-fluoropyrimidin-4-yl)amino)methyl)-4-hydroxypiperidin-1-yl)acetamide] displayed an IC50 of 190 nM. Besides, the EC50 in assay [2] (setting [3]) is 44 nM; in assay [2] (setting [4]), less than 100 nM.
As for `NC(=O)CN1CCC(O)(CNc2ncnc(N(Cc3ccc(C(F)(F)F)cc3)C3CC3)c2F)CC1` [Example A7-10, 2-(4-(((6-(cyclopropyl(4-(trifluoromethyl)benzyl)amino)-5-fluoropyrimidin-4-yl)amino)methyl)-4-hydroxypiperidin-1-yl)acetamide], in assay [1], the midpoint of inhibition, the IC50, lay at 17 nM. Moreover, in assay [2] (setting [3]), the 50% effective concentration (EC50) was found to be 3.3 nM.
Turning to `NC(=O)CN1CCC(O)(CNc2ncnc(N(Cc3ccc(C(F)(F)F)nc3)C3CC3)c2F)CC1` [Example A7-11, 2-(4-(((6-(cyclopropyl((6-(trifluoromethyl)pyridin-3-yl)methyl)amino)-5-fluoropyrimidin-4-yl)amino)methyl)-4-hydroxypiperidin-1-yl)acetamide], inhibition in assay [1] was half-maximal at 200 nM (IC50). In addition, the EC50 in assay [2] (setting [3]) was 72 nM; in assay [2] (setting [4]), less than 100 nM.
`NC(=O)CN1CCC(CNc2ncnc(N(Cc3ccc(C(F)(F)F)cc3)C3CC3)c2F)(C(N)=O)CC1` [Example A7-44, 1-(2-amino-2-oxoethyl)-4-(((6-(cyclopropyl(4-(trifluoromethyl)benzyl)amino)-5-fluoropyrimidin-4-yl)amino)methyl)piperidine-4-carboxamide]: half-maximal inhibition in assay [1] (IC50) required 74 nM. Further, the concentration for a half-maximal effect (EC50) in assay [2] (setting [3]) amounted to 24 nM.
`NC(=O)CN1CCC(CO)(CNc2ncnc(N(Cc3ccc(C(F)(F)F)nc3)C3CC3)c2F)CC1` [Example A7-45, 2-(4-(((6-(cyclopropyl((6-(trifluoromethyl)pyridin-3-yl)methyl)amino)-5-fluoropyrimidin-4-yl)amino)methyl)-4-(hydroxymethyl)piperidin-1-yl)acetamide]: in assay [1], the concentration for half-maximal inhibition (IC50) is 80 nM. The EC50 in assay [2] (setting [3]) was 46 nM; in assay [2] (setting [4]), less than 100 nM.

(Values after patent US12441704B2, “Compounds active towards nuclear receptors” (NUEVOLUTION A/S, priority 2019, dated 2025).)
